{"source": "patent US10722484B2", "about": "“Methods of cancer treatment” (K-Gen, Inc., priority 2016, dated 2020)", "key": {"A549": {"tested_on": "A549", "experiment": "Proliferation assay (CellTiter Glo)", "type": "cell-based", "details": "96 hours", "protocol": "(§1) The dose range for most compounds was 4.6 nM-30 μM. The dose ranges for some compounds were adjusted downward to 0.46 nM-3 μM or 0.08 nM-0.5 μM or 0.03 nM-0.2 μM. […] The results are shown in Tables 3-6 for pancreatic cancer, lung cancer, colon/gastric cancer, and leukemia."}, "AGS": {"tested_on": "AGS", "experiment": "Proliferation assay (CellTiter Glo)", "type": "cell-based", "details": "96 hours", "protocol": "as §1"}, "Capan-1": {"tested_on": "Capan-1", "experiment": "Proliferation assay (CellTiter Glo)", "type": "cell-based", "details": "96 hours", "protocol": "as §1"}, "H358": {"tested_on": "H358", "experiment": "Proliferation assay (CellTiter Glo)", "type": "cell-based", "details": "HE58, 96 hours", "protocol": "as §1"}, "H441": {"tested_on": "H441", "experiment": "Proliferation assay (CellTiter Glo)", "type": "cell-based", "details": "96 hours", "protocol": "as §1"}, "H727": {"tested_on": "H727", "experiment": "Proliferation assay (CellTiter Glo)", "type": "cell-based", "details": "96 hours", "protocol": "as §1"}, "HCT116": {"tested_on": "HCT116", "experiment": "Proliferation assay (CellTiter Glo)", "type": "cell-based", "details": "96 hours", "protocol": "as §1"}, "KP-4": {"tested_on": "KP-4", "experiment": "Proliferation assay (CellTiter Glo)", "type": "cell-based", "details": "96 hours", "protocol": "as §1"}, "LS180": {"tested_on": "LS180", "experiment": "Proliferation assay (CellTiter Glo)", "type": "cell-based", "details": "96 hours", "protocol": "as §1"}, "SW620": {"tested_on": "SW620", "experiment": "Proliferation assay (CellTiter Glo)", "type": "cell-based", "details": "96 hours", "protocol": "as §1"}, "MiaPaCa-2 [1]": {"tested_on": "MiaPaCa-2", "experiment": "Proliferation assay (CellTiter Glo)", "type": "cell-based", "details": "96 hours"}, "HL60": {"tested_on": "HL60", "experiment": "Proliferation assay (CellTiter Glo)", "type": "cell-based, human", "details": "96 hours", "protocol": "as §1"}, "THP1": {"tested_on": "THP1", "experiment": "Proliferation assay (CellTiter Glo)", "type": "cell-based, human", "details": "96 hours", "protocol": "as §1"}, "BxPC-3": {"tested_on": "BxPC-3", "experiment": "Proliferation assay (CellTiter Glo)", "type": "cell-based", "details": "BxPC-3 (RAS WT); 96 hours", "protocol": "as §1\n(§2) Other cancer cell lines having wild-type K-RAS status and K-RAS mutation at G12 were also screened using the PKC activator compounds. […] K104 was tested in a range of 0.03 nM-0.2 μM. […] The dose ranges were adjusted downward to 0.46 nM-3 μM for K102 and 0.08 nM-0.5 μM for K103 for some cell lines. The results of the screening of cancer cells lines with wild-type K-RAS status and K-RAS mutations at the G12 positions are presented in Table 7."}, "Colo205": {"tested_on": "Colo205", "experiment": "Proliferation assay (CellTiter Glo)", "type": "cell-based", "details": "Colo205 (RAS WT); 96 hours", "protocol": "as §1, §2"}, "H1915": {"tested_on": "H1915", "experiment": "Proliferation assay (CellTiter Glo)", "type": "cell-based", "details": "H1915 (RAS WT); 96 hours", "protocol": "as §1, §2"}, "H838": {"tested_on": "H838", "experiment": "Proliferation assay (CellTiter Glo)", "type": "cell-based", "details": "H838 (RAS WT); 96 hours", "protocol": "as §1, §2"}, "HT29": {"tested_on": "HT29", "experiment": "Proliferation assay (CellTiter Glo)", "type": "cell-based", "details": "HT29 (RAS WT); 96 hours", "protocol": "as §1, §2"}, "RPMI8226": {"tested_on": "RPMI8226", "experiment": "Proliferation assay (CellTiter Glo)", "type": "cell-based", "details": "RPM18226; 96 hours", "protocol": "as §1, §2"}, "SW900": {"tested_on": "SW900", "experiment": "Proliferation assay (CellTiter Glo)", "type": "cell-based", "details": "SW900 (K-RAS: G12V); 96 hours", "protocol": "as §1, §2"}, "[2]": {"tested_on": "A549 lung cancer cell line", "experiment": "Combination viability/proliferation assays (384-well IC50 ratio, 96-well MacSynergy II)", "type": "cell-based", "protocol": "(§3) A 96-well MacSynergy II format for combination test was also used. […] The analysis was done with the SQRT(Data) scale and the four parameter Hill curve was fitted using XLfit5.1 (the MacSynergy II Excel Spreadsheet) for the inhibition data. Synergy (positive number) or Antagonism (negative number) volumes were calculated. […] Three-dimensional MacSynergy II graphs were generated where positive values indicated synergism and negative values indicated antagonism."}, "MiaPaCa-2 [3]": {"tested_on": "MiaPaCa-2", "experiment": "Combination viability/proliferation assays", "type": "cell-based", "protocol": "as §3"}}, "note": "Where two headings read alike, the source gives them in different places.", "data": [{"molecule": "CC(=O)OC12CC(C)C3(O)C(C=C(CO)CC4(O)C(O)C(C)=CC43)C1C2(C)C", "note": "(centres unmarked) [Compound K101C]", "values": [{"measurement": "EC50", "setting": "A549; A549 (K-RAS: G12S), absolute EC50, read-out: Ab EC50", "value": 13, "unit": "µM"}, {"measurement": "Top Inhibition %", "setting": "A549; A549, % of top inhibition", "value": 70.3, "unit": "%"}, {"measurement": "EC50", "setting": "A549; A549, relative EC50, read-out: Re EC50", "value": 6.68, "unit": "µM"}, {"measurement": "EC50", "setting": "AGS; AGS (gastric, K-RAS: G12D), absolute EC50, read-out: Ab EC50", "value": "> 30", "unit": "µM"}, {"measurement": "Top Inhibition %", "setting": "AGS; AGS, % of top inhibition", "value": 25.3, "unit": "%"}, {"measurement": "EC50", "setting": "AGS; AGS, relative EC50, read-out: Re EC50", "value": 11, "unit": "µM"}, {"measurement": "EC50", "setting": "Capan-1; Capan-1 (K-RAS: G12V), absolute EC50, read-out: Ab EC50", "value": "> 30", "unit": "µM"}, {"measurement": "Top Inhibition %", "setting": "Capan-1; Capan-1, % of top inhibition", "value": 35.7, "unit": "%"}, {"measurement": "EC50", "setting": "Capan-1; Capan-1, relative EC50, read-out: Re EC50", "value": 5.4, "unit": "µM"}, {"measurement": "Top Inhibition %", "setting": "H358; % of top inhibition", "value": 44.0, "unit": "%"}, {"measurement": "EC50", "setting": "H358; absolute EC50, read-out: Ab EC50", "value": "> 30", "unit": "µM"}, {"measurement": "EC50", "setting": "H358; relative EC50, read-out: Re EC50", "value": 4.98, "unit": "µM"}, {"measurement": "EC50", "setting": "H441; H441 (K-RAS: G12V), absolute EC50, read-out: Ab EC50", "value": "> 30", "unit": "µM"}, {"measurement": "Top Inhibition %", "setting": "H441; H441, % of top inhibition", "value": 37.0, "unit": "%"}, {"measurement": "EC50", "setting": "H441; H441, relative EC50, read-out: Re EC50", "value": 7.44, "unit": "µM"}, {"measurement": "EC50", "setting": "H727; H727 (K-RAS: G12V), absolute EC50, read-out: Ab EC50", "value": "> 30", "unit": "µM"}, {"measurement": "Top Inhibition %", "setting": "H727; H727, % of top inhibition", "value": 42.8, "unit": "%"}, {"measurement": "EC50", "setting": "H727; H727, relative EC50, read-out: Re EC50", "value": 3.61, "unit": "µM"}, {"measurement": "EC50", "setting": "HCT116; HCT116 (K-RAS: G13D), absolute EC50, read-out: Ab EC50", "value": "> 30", "unit": "µM"}, {"measurement": "Top Inhibition %", "setting": "HCT116; HCT116, % of top inhibition", "value": 12.2, "unit": "%"}, {"measurement": "EC50", "setting": "KP-4; KP-4 (K-RAS: G12C), absolute EC50, read-out: Ab EC50", "value": 11, "unit": "µM"}, {"measurement": "Top Inhibition %", "setting": "KP-4; KP-4, % of top inhibition", "value": 70.4, "unit": "%"}, {"measurement": "EC50", "setting": "KP-4; KP-4, relative EC50, read-out: Re EC50", "value": 6.77, "unit": "µM"}, {"measurement": "EC50", "setting": "LS180; LS180 (K-RAS: G12D), absolute EC50, read-out: Ab EC50", "value": "> 30", "unit": "µM"}, {"measurement": "Top Inhibition %", "setting": "LS180; LS180, % of top inhibition", "value": 6.8, "unit": "%"}, {"measurement": "EC50", "setting": "SW620; SW620 (K-RAS: G12V), absolute EC50, read-out: Ab EC50", "value": "> 30", "unit": "µM"}, {"measurement": "Top Inhibition %", "setting": "SW620; SW620, % of top inhibition", "value": 0.0, "unit": "%"}, {"measurement": "EC50", "setting": "MiaPaCa-2 [1]; MiaPaCa-2 (K-RAS: G12C), absolute EC50, read-out: Ab EC50", "value": "> 30", "unit": "µM"}, {"measurement": "Top Inhibition %", "setting": "MiaPaCa-2 [1]; MiaPaCa-2, % of top inhibition", "value": 40.1, "unit": "%"}, {"measurement": "EC50", "setting": "MiaPaCa-2 [1]; MiaPaCa-2, relative EC50, read-out: Re EC50", "value": 4.37, "unit": "µM"}, {"measurement": "EC50", "setting": "HL60; HL60 (N-RAS: Q61L), absolute EC50, read-out: Ab EC50", "value": 17, "unit": "µM"}, {"measurement": "Top Inhibition %", "setting": "HL60; HL60, % of top inhibition", "value": 63.9, "unit": "%"}, {"measurement": "EC50", "setting": "HL60; HL60, relative EC50, read-out: Re EC50", "value": 13, "unit": "µM"}, {"measurement": "EC50", "setting": "THP1; THP1 (N-RAS: G12D), absolute EC50, read-out: Ab EC50", "value": 16, "unit": "µM"}, {"measurement": "Top Inhibition %", "setting": "THP1; THP1, % of top inhibition", "value": 51.4, "unit": "%"}, {"measurement": "EC50", "setting": "THP1; THP1, relative EC50, read-out: Re EC50", "value": 8.11, "unit": "µM"}, {"measurement": "Top Inhibition %", "setting": "BxPC-3", "value": 36.67, "unit": "%"}, {"measurement": "Top Inhibition %", "setting": "Colo205", "value": 73.2, "unit": "%"}, {"measurement": "Top Inhibition %", "setting": "H1915", "value": 28.9, "unit": "%"}, {"measurement": "Top Inhibition %", "setting": "H838", "value": 20.2, "unit": "%"}, {"measurement": "Top Inhibition %", "setting": "HT29", "value": 4.8, "unit": "%"}, {"measurement": "Top Inhibition %", "setting": "RPMI8226", "value": 22.72, "unit": "%"}, {"measurement": "Top Inhibition %", "setting": "SW900", "value": 10.9, "unit": "%"}]}, {"molecule": "CS(=O)(=O)c1ccc(C(=O)Nc2ccc(Cl)c(-c3ccccn3)c2)c(Cl)c1", "note": "[Vismodegib]", "values": [{"measurement": "Combination in A549: K101A (synergism/antagonism)", "setting": "[2]", "value": "Synergism"}, {"measurement": "Combination in A549: K102 (synergism/antagonism)", "setting": "[2]", "value": "Synergism"}, {"measurement": "effect in combination with the PKC activator compounds in inhibiting the growth of A549 cells", "setting": "[2]", "value": "strong synergy"}, {"measurement": "inhibition of cell proliferation by the agent alone", "setting": "[2]", "value": "did not inhibit"}, {"measurement": "inhibition of proliferation by the agent alone", "setting": "MiaPaCa-2 [3]; alone at 10 μM", "value": "did not inhibit"}, {"measurement": "effect in combination with K101A or K102 (synergy)", "setting": "MiaPaCa-2 [3]; at 1 μM", "value": "not"}, {"measurement": "effect in combination with K101A or K102", "setting": "MiaPaCa-2 [3]; at 10 μM", "value": "synergy"}]}]}
